Here are results for 17 compounds from patent US10961215B2, “N-aryl and N-heteroaryl piperidine derivatives as liver X receptor beta agonists, compositions, and their use” (Merck Sharp & Dohme Corp., priority 2016, dated 2021).

For assay [1], the target named is T1, GST tagged LXRbeta LBD (ligand binding domain) (Homo sapiens, UniProt P55055).
T1 construct: purchased Invitrogen pv4658.pps
T1 sequence (P55055 222-460 limits assumed): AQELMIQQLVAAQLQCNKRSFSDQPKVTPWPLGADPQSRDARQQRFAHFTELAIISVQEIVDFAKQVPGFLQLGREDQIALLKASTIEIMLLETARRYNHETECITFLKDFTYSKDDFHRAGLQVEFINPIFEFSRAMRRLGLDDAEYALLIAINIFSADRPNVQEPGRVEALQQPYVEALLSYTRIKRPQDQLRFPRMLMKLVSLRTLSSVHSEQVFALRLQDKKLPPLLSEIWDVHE
The assay can be described thus: LanthaScreen TR-FRET Liver X Receptor Coactivator Assay, LXR beta-LBD (co-activator recruitment; IP and % Emax relative to T0901317). The assay is classed as biochemical. Particulars: for pEC50: Inflection Point of co-activator recruitment, LXR beta-LBD, TR-FRET; for Emax: efficacy at max dose in relation to reference T0901317, LXR beta-LBD, read-out: LXR beta actiivty at max dose (%). As to the method: (§1) Potency (Inflection Point, IP) and efficacy (Emax) are evaluated via compound-induced co-activator recruitment to glutathione-S-transferase (GST) tagged LXRbeta and LXRalpha LBD (ligand binding domain) proteins in relation to reference dual agonist compound T0901317 (N-(2,2,2-Trifluoroethyl)-N-[4-[2,2,2-trifluoro-1-hydroxy-1-(trifluoromethyl)ethyl]phenyl]benzenesulfonamide) using the LanthaScreen™ TR-FRET Liver X Receptor Coactivator Assays according to manufacturer's instructions (Invitrogen catalog number pv4658.pps and pv4655). While running the LanthaScreen™ TR-FRET Liver X Receptor Coactivator Assay, LXR alpha-LBD or LXR beta-LBD was added to ligand test compounds followed by addition of a mixture of a fluorescein-labelled coactivator peptide and terbium-conjugated anti-GST antibody. After an incubation period at room temperature, TR-FRET (time-resolved fluorescence resonance energy transfer) was measured using a filter-based instrument capable of TR-FRET, e.g. PerkinElmer Envision.
On the technique in general: TR-FRET usually uses a lanthanide donor and a delayed reading to cut background.

Assay [2] deals with T2, GST tagged LXRalpha LBD (ligand binding domain) (Homo sapiens, UniProt Q13133).
T2 construct: purchased Invitrogen pv4655
T2 sequence (Q13133 209-447 limits assumed): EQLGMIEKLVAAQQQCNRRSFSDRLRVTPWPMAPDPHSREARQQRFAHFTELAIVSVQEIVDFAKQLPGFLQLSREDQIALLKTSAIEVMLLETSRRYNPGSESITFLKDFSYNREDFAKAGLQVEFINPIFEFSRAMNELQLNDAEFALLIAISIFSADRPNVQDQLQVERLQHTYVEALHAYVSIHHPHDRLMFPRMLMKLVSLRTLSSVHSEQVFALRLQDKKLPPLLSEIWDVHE
The assay can be described thus: LanthaScreen TR-FRET Liver X Receptor Coactivator Assay, LXR alpha-LBD (co-activator recruitment; IP and % Emax relative to T0901317). The assay is classed as biochemical. The settings on record: for LXR alpha IP (nM) / pEC50: Inflection Point of co-activator recruitment, LXR alpha-LBD, TR-FRET; for Emax: efficacy at max dose in relation to reference T0901317, LXR alpha-LBD, read-out: LXR alpha actiivty at max dose (%). The procedure: as §1

pEC50: −log10 of the molar value.

A word on the pEC50: it is the EC50 on a negative log10 scale, so that one unit is a factor of ten. Read a low pEC50 as a high EC50. Turning to `COc1cccc([C@@](O)(C(=O)N(C)CC2CC3(CCN(c4ccc(C(=O)N(C)C)c(Cl)n4)CC3)C2)C(F)(F)F)c1` [Example 14-1, 2-chloro-N,N-dimethyl-6-(2-(((R)-3,3,3-trifluoro-2-hydroxy-2-(3-methoxyphenyl)-N-methylpropanamido)methyl)-7-azaspiro[3.5]nonan-7-yl)nicotinamide], in assay [1], the pEC50 is 7.46 and the Emax worked out at 42%. For the same compound, in assay [2], the “LXR alpha IP (nM)” value is “No IP” and the Emax came out at 5%.
Turning to `COc1cccc([C@@](O)(C(=O)N(C)C[C@@H]2C[C@@H]2C2CCN(c3ccc(C(=O)N(C)C)c(Cl)n3)CC2)C(F)(F)F)c1` [Example 15-3, 2-chloro-N,N-dimethyl-6-(4-((1R,2R)-2-(((R)-3,3,3-trifluoro-2-hydroxy-2-(3-methoxyphenyl)-N-methylpropanamido)methyl)cyclopropyl)piperidin-1-yl)nicotinamide], in assay [1], the pEC50 is 7.77 and the Emax came to 58%. Besides, in assay [2], the “LXR alpha IP (nM)” value is on record as “No IP” and the Emax turned out to be 10%.
Consider `CC(C)C(O)(C(=O)NCCCC1CCN(c2ccc(C(=O)N(C)C)c(Cl)n2)CC1)C(F)(F)F` (centres unmarked) [Example 5-7, 2-chloro-6-(4-(3-(2-hydroxy-3-methyl-2-(trifluoromethyl)butanamido)propyl)piperidin-1-yl)-N,N-dimethylnicotinamide], for which, in assay [1], the pEC50 is 6.20 and the Emax was determined as 106%. In addition, in assay [2], the “LXR alpha IP (nM)” value was “No IP” and the Emax worked out at 27%.
As for `COc1cccc([C@@](O)(C(=O)NC2CC(CC3CCN(c4ccc(C(=O)N(C)C)c(Cl)c4)CC3)C2)C(F)(F)F)c1` (stereo partly drawn) [Example 11-6, (R)-2-chloro-N,N-dimethyl-4-(4-((3-(3,3,3-trifluoro-2-hydroxy-2-(3-methoxyphenyl)propanamido)cyclobutyl)methyl)piperidin-1-yl)benzamide], in assay [1], the pEC50 is 6.25 and the Emax stood at 54%. Besides, in assay [2], the “LXR alpha IP (nM)” value is on record as “No IP” and the Emax was determined as 3%.
Turning to `CN(C)C(=O)c1ccc(N2CCC(CCCN(C)C(=O)[C@@]3(C(F)(F)F)CCCO3)CC2)nc1Cl` [Example 1-7, (R)-2-chloro-N,N-dimethyl-6-(4-(3-(N-methyl-2-(trifluoromethyl)-tetrahydrofuran-2-carboxamido)propyl)piperidin-1-yl)nicotinamide], in assay [1], the pEC50 is 6.84 and the Emax stood at 94%. Also, in assay [2], the pEC50 is 5.60 and the Emax is 57%.
For `CC(C)NC(=O)c1ccc(N2CCC3(CC2)C[C@H]3CCN(C)C(=O)[C@](O)(c2ccccc2)C(F)(F)F)cc1Cl` [Example 7-28, 2-chloro-N-isopropyl-4-((S)-1-(2-((R)-3,3,3-trifluoro-2-hydroxy-N-methyl-2-phenylpropanamido)ethyl)-6-azaspiro[2.5]octan-6-yl)benzamide], in assay [1], the pEC50 was 5.79 and the Emax is 31%. Moreover, in assay [2], the “LXR alpha IP (nM)” value is listed as “No IP” and the Emax stood at 6%.
As to `CN(C)C(=O)c1ccc(N2CCC(CCCNC(=O)[C@](O)(c3cccc(C4CC4)c3)C(F)(F)F)CC2)nc1Cl` [Example 5-14, (R)-2-chloro-6-(4-(3-(2-(3-cyclopropylphenyl)-3,3,3-trifluoro-2-hydroxy-propanamido)propyl)piperidin-1-yl)-N,N-dimethylnicotinamide], in assay [1], the pEC50 is 6.68 and the Emax was found to be 44%. In assay [2], the “LXR alpha IP (nM)” value was “No IP” and the Emax turned out to be 0%.
As to `COc1ccccc1[C@@]1(C(=O)N(C)CCCC2CCN(c3ccc(C(=O)N(C)C)c(Cl)n3)CC2)CCCO1` [Example 1-60, (R)-2-chloro-6-(4-(3-(2-(2-methoxyphenyl)-N-methyltetrahydrofuran-2-carboxamido)propyl)piperidin-1-yl)-N,N-dimethylnicotinamide], in assay [1], the negative logarithm of the EC50 (pEC50) was 7.22 and the Emax stood at 93%. In addition, in assay [2], the pEC50 was 5.84 and the Emax came out at 33%.
As to `CN(C)C(=O)c1ccc(N2CCC(CCCNC(=O)[C@](O)(c3cccc(OC(F)(F)F)c3)C(F)(F)F)CC2)nc1Cl` [Example 5-12, (R)-2-chloro-N,N-dimethyl-6-(4-(3-(3,3,3-trifluoro-2-hydroxy-2-(3-(trifluoromethoxy)phenyl)propanamido)propyl)piperidin-1-yl)nicotinamide], in assay [1], the pEC50 is 5.99 and the Emax came to 40%. In assay [2], the pEC50 is 4.88 and the Emax came out at 40%.
As for `CC(C)=C(C(=O)N(C)CCCC1CCN(c2ccc(C(=O)N(C)C)c(Cl)n2)CC1)c1ccccc1` [Example 1-61, 2-chloro-6-(4-(3-(N,3-dimethyl-2-phenylbut-2-enamido)propyl)piperidin-1-yl)-N,N-dimethylnicotinamide], in assay [1], the negative-log EC50 (pEC50) was 5.86 and the Emax stood at 23%. Further, in assay [2], the “LXR alpha IP (nM)” value is reported as “No IP” and the Emax is 0%.
In the case of `COc1cccc([C@@](O)(C(=O)NCC[C@H]2CC23CCN(c2ccc(C(=O)N(C)C)c(Cl)c2)CC3)C(F)(F)F)c1` [Example 7-32, 2-chloro-N,N-dimethyl-4-((R)-1-(2-((R)-3,3,3-trifluoro-2-hydroxy-2-(3-methoxyphenyl)propanamido)ethyl)-6-azaspiro[2.5]octan-6-yl)benzamide], in assay [1], the negative-log EC50 (pEC50) is 6.55 and the Emax is 69%. In assay [2], the “LXR alpha IP (nM)” value is “No IP” and the Emax was found to be 17%.
As to `CN(C)C(=O)c1ccc(N2CCC(F)(CCCN(C)C(=O)[C@](O)(c3ccccc3)C(F)(F)F)CC2)nc1Cl` [Example 12-4, (R)-2-chloro-6-(4-fluoro-4-(3-(3,3,3-trifluoro-2-hydroxy-N-methyl-2-phenylpropanamido)propyl)piperidin-1-yl)-N,N-dimethylnicotinamide], in assay [1], the negative-log EC50 (pEC50) is 6.58 and the Emax stood at 46%. In assay [2], the “LXR alpha IP (nM)” value is on record as “No IP” and the Emax was 0%.
Turning to `CN(C)C(=O)c1ccc(N2CCC3(CC2)CC3CCCNC(=O)C(C)(C)c2ccccc2)cc1Cl` (centres unmarked) [Example 7-36, 2-chloro-N,N-dimethyl-4-(1-(3-(2-methyl-2-phenylpropanamido)propyl)-6-azaspiro[2.5]octan-6-yl)benzamide], in assay [1], the negative logarithm of the EC50 (pEC50) was 6.28 and the Emax was determined as 57%. In addition, in assay [2], the “LXR alpha IP (nM)” value is recorded as “No IP” and the Emax was 0%.
Take `CN(C)C(=O)c1ccc(N2CCC([C@H]3C[C@H]3CN(C)C(=O)[C@](O)(c3cccc(OC4CC4)c3)C(F)(F)F)CC2)nc1Cl` [Example 15-8, 2-chloro-6-(4-((1R,2R)-2-(((R)-2-(3-cyclopropoxyphenyl)-3,3,3-trifluoro-2-hydroxy-N-methylpropanamido)methyl)cyclopropyl)piperidin-1-yl)-N,N-dimethylnicotinamide]: in assay [1], the negative logarithm of the EC50 (pEC50) is 7.13 and the Emax stood at 59%. Besides, in assay [2], the “LXR alpha IP (nM)” value is “No IP” and the Emax stood at 0%.
In the case of `CCOc1cccc([C@@](O)(C(=O)N(C)CCCC2CCN(c3ccc(C(=O)N(C)C)c(Cl)n3)CC2)C(F)(F)F)c1` [Example 1-36, (R)-2-chloro-6-(4-(3-(2-(3-ethoxyphenyl)-3,3,3-trifluoro-2-hydroxy-N-methylpropanamido)propyl)piperidin-1-yl)-N,N-dimethylnicotinamide], in assay [1], the pEC50 was 7.11 and the Emax was found to be 63%. In addition, in assay [2], the “LXR alpha IP (nM)” value is on record as “No IP” and the Emax amounted to 0%.
Take `CC(C)[C@@](O)(C(=O)N(C)CCCC1CCN(c2ccc(C(=O)N(C)C)c(Cl)n2)CC1)C(F)(F)F` [Example 1-3, (R)-2-chloro-6-(4-(3-(2-hydroxy-N,3-dimethyl-2-(trifluoromethyl)butanamido)propyl)piperidin-1-yl)-N,N-dimethylnicotinamide]: the figures for the pEC50 in assay [1] and in assay [2] were 6.80 and 5.75, respectively. The Emax in assay [1] stood at 102%; in assay [2] it was 40%.
For `CN(C)C(=O)c1ccc(N2CCC(CCCN(C)C(=O)C(O)C(F)(F)F)CC2)nc1Cl` (centres unmarked) [Example 1-52, 2-chloro-N,N-dimethyl-6-(4-(3-(3,3,3-trifluoro-2-hydroxy-N-methylpropanamido)propyl)piperidin-1-yl)nicotinamide], in assay [1], the pEC50 was 5.30 and the Emax is 46%. In assay [2], the “LXR alpha IP (nM)” value is “No IP” and the Emax turned out to be 11%.
